14 compounds from BindingDB's records for doi:10.1016/j.bmcl.2004.04.033 (Eli Lilly, 2004) can be followed below.

Structures are written as SMILES. Counter-ions that a name gives are not always drawn. Some results are limits rather than exact numbers.

For test [1], the target named is Cyclin-dependent kinase 4/G1/S-specific cyclin-D1 (Homo sapiens, UniProt P11802). The test is described as follows: CDK Kinase Inhibition Assay. The note with it: pH 7; 22 °C. As to the method: In vitro CDK assay using purified enzyme, was incubated at room temperature with substrate, and test compounds in the presence of ATP/[gamma-33P]ATP. 33P incorporation was measured with a Top Count (Packard). IC50 is the inhibitor concentration which inhibits 50% of kinase activity that catalyzes the transfer of the terminal phosphate from 33P labeled ATP to the substrate.

In test [2] the target is cAMP-dependent protein kinase catalytic subunit alpha (Bos taurus, UniProt P00517). The test is described as follows: CDK Kinase Inhibition Assay. The note with it: 25 °C.

Sequence of Cyclin-dependent kinase 4/G1/S-specific cyclin-D1 (P11802 whole entry): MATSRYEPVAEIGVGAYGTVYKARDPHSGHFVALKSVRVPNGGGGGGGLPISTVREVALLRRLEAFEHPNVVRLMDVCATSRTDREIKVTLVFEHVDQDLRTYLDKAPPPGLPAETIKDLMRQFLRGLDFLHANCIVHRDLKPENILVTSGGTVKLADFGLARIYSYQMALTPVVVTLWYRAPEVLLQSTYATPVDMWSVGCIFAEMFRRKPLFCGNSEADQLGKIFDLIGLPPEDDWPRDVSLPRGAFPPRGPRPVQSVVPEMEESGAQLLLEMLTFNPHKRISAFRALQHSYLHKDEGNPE
Sequence of Cyclin-dependent kinase 4/G1/S-specific cyclin-D1 (P24385 whole entry, further chain): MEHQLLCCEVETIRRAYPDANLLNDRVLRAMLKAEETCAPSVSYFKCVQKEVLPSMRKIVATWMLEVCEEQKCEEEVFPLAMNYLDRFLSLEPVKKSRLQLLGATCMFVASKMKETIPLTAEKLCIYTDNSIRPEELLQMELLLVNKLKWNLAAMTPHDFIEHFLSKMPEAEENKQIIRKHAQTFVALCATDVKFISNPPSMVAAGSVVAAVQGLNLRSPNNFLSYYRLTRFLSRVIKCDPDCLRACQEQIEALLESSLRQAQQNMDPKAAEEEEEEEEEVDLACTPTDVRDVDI

For `COC(=O)CC(NCC1Cc2cccc3c4c5c(c6c7ccc(F)cc7[nH]c6c4n(c23)C1)C(=O)NC5=O)C(=O)OC` (stereo not given) [1,4-dimethyl 2-[({7-fluoro-13,15-dioxo-1,4,14-triazaheptacyclo[16.7.1.0^{2,17}.0^{3,11}.0^{5,10}.0^{12,16}.0^{22,26}]hexacosa-2(17),3(11),5(10),6,8,12(16),18(26),19,21-nonaen-24-yl}methyl)amino]butanedioate], half-maximal inhibition in test [1] (IC50) was put at 671 nM. With `O=C1NC(=O)c2c1c1c3ccc(Br)cc3[nH]c1c1c2c2cccc3c2n1CC(CO)C3` (stereo not given) [7-bromo-24-(hydroxymethyl)-1,4,14-triazaheptacyclo[16.7.1.0^{2,17}.0^{3,11}.0^{5,10}.0^{12,16}.0^{22,26}]hexacosa-2(17),3(11),5(10),6,8,12(16),18(26),19,21-nonaene-13,15-dione], the IC50 in test [2] is greater than 2000 nM. Consider `O=C1NC(=O)c2c1c1c3ccc(F)cc3[nH]c1c1c2c2cccc3c2n1CC(CO)C3` (stereo not given) [7-fluoro-24-(hydroxymethyl)-1,4,14-triazaheptacyclo[16.7.1.0^{2,17}.0^{3,11}.0^{5,10}.0^{12,16}.0^{22,26}]hexacosa-2(17),3(11),5(10),6,8,12(16),18(26),19,21-nonaene-13,15-dione], for which, in test [2], the IC50 was greater than 2000 nM. In the case of `CNCC1Cc2cccc3c4c5c(c6c7ccc(F)cc7[nH]c6c4n(c23)C1)C(=O)NC5=O` (stereo not given) [7-fluoro-24-[(methylamino)methyl]-1,4,14-triazaheptacyclo[16.7.1.0^{2,17}.0^{3,11}.0^{5,10}.0^{12,16}.0^{22,26}]hexacosa-2(17),3(11),5(10),6,8,12(16),18(26),19,21-nonaene-13,15-dione hydrochloride], the IC50 in test [2] came to 383 nM; in test [1], 8 nM.

In turn, `O=C1NC(=O)c2c1c1c3ccc(F)cc3[nH]c1c1c2c2cccc3c2n1C(CO)CC3` (stereo not given) [7-fluoro-25-(hydroxymethyl)-1,4,14-triazaheptacyclo[16.7.1.0^{2,17}.0^{3,11}.0^{5,10}.0^{12,16}.0^{22,26}]hexacosa-2(17),3(11),5(10),6,8,12(16),18(26),19,21-nonaene-13,15-dione] returned an IC50 in test [2] greater than 2000 nM.

As for `O=C1NC(=O)c2c1c1c3ccccc3[nH]c1c1c2c2cccc3c2n1CCC3CO` (stereo not given) [23-(hydroxymethyl)-1,4,14-triazaheptacyclo[16.7.1.0^{2,17}.0^{3,11}.0^{5,10}.0^{12,16}.0^{22,26}]hexacosa-2(17),3(11),5(10),6,8,12(16),18(26),19,21-nonaene-13,15-dione], the IC50 in test [2] is greater than 2000 nM. In test [1], `O=C1NC(=O)c2c1c1c3ccc(F)cc3[nH]c1c1c2c2cccc3c2n1CC(CCl)C3` (stereo not given) [24-(chloromethyl)-7-fluoro-1,4,14-triazaheptacyclo[16.7.1.0^{2,17}.0^{3,11}.0^{5,10}.0^{12,16}.0^{22,26}]hexacosa-2(17),3(11),5(10),6,8,12(16),18(26),19,21-nonaene-13,15-dione] yielded an IC50 of 64 nM. Turning to `O=C1NC(=O)c2c1c1c3ccccc3[nH]c1c1c2c2cccc3c2n1CC(CO)C3` (stereo not given) [24-(hydroxymethyl)-1,4,14-triazaheptacyclo[16.7.1.0^{2,17}.0^{3,11}.0^{5,10}.0^{12,16}.0^{22,26}]hexacosa-2(17),3(11),5(10),6,8,12(16),18(26),19,21-nonaene-13,15-dione], the IC50 in test [2] was greater than 2000 nM. Still for that read-out and setting: to `O=C1NC(=O)c2c1c1c3ccc(C(F)(F)F)cc3[nH]c1c1c2c2cccc3c2n1CC(CO)C3` (stereo not given) [24-(hydroxymethyl)-7-(trifluoromethyl)-1,4,14-triazaheptacyclo[16.7.1.0^{2,17}.0^{3,11}.0^{5,10}.0^{12,16}.0^{22,26}]hexacosa-2(17),3(11),5(10),6,8,12(16),18(26),19,21-nonaene-13,15-dione] belongs greater than 2000 nM; to `COc1ccc2c(c1)[nH]c1c2c2c(c3c4cccc5c4n(c13)CC(CO)C5)C(=O)NC2=O` (stereo not given) [24-(hydroxymethyl)-7-methoxy-1,4,14-triazaheptacyclo[16.7.1.0^{2,17}.0^{3,11}.0^{5,10}.0^{12,16}.0^{22,26}]hexacosa-2(17),3(11),5(10),6,8,12(16),18(26),19,21-nonaene-13,15-dione], greater than 2000 nM. For the compound `CN(C)CC1Cc2cccc3c4c5c(c6c7ccccc7[nH]c6c4n(c23)C1)C(=O)NC5=O` (stereo not given) [24-[(dimethylamino)methyl]-1,4,14-triazaheptacyclo[16.7.1.0^{2,17}.0^{3,11}.0^{5,10}.0^{12,16}.0^{22,26}]hexacosa-2(17),3(11),5(10),6,8,12(16),18(26),19,21-nonaene-13,15-dione], it took 898 nM to reach half-maximal inhibition in test [1] (IC50). Compound `O=C1NC(=O)c2c1c1c3ccccc3ccc1c1c2c2cccc3c2n1CC(CO)C3` (stereo not given) [25-(hydroxymethyl)-1,15-diazaheptacyclo[17.7.1.0^{2,18}.0^{3,12}.0^{6,11}.0^{13,17}.0^{23,27}]heptacosa-2(18),3(12),4,6(11),7,9,13(17),19(27),20,22-decaene-14,16-dione] registered an IC50 in test [2] greater than 2000 nM. As for `O=C1NC(=O)c2c1c1c3ccccc3ccc1c1c2c2cccc3c2n1C(CO)CC3` (stereo not given) [26-(hydroxymethyl)-1,15-diazaheptacyclo[17.7.1.0^{2,18}.0^{3,12}.0^{6,11}.0^{13,17}.0^{23,27}]heptacosa-2(18),3(12),4,6(11),7,9,13(17),19(27),20,22-decaene-14,16-dione], the IC50 in test [2] is greater than 2000 nM. In test [1], `NC(=O)[C@@H]1CCCN1CC1Cc2cccc3c4c5c(c6c7ccc(F)cc7[nH]c6c4n(c23)C1)C(=O)NC5=O` (stereo partly drawn) [(2S)-1-({7-fluoro-13,15-dioxo-1,4,14-triazaheptacyclo[16.7.1.0^{2,17}.0^{3,11}.0^{5,10}.0^{12,16}.0^{22,26}]hexacosa-2(17),3(11),5(10),6,8,12(16),18(26),19,21-nonaen-24-yl}methyl)pyrrolidine-2-carboxamide] returned an IC50 greater than 2000 nM.

For orientation: IC50 means the concentration that inhibits the measured activity by half. Lower therefore signals greater potency in that assay.
